Test results as given in ChEMBL document CHEMBL3751677, “Cardanol-derived AChE inhibitors: Towards the development of dual binding derivatives for Alzheimer's disease” (Eur J Med Chem, 2016).
Activity calls are given as the source filed them. The rule behind the calls is not given here.

Legend:
[1] = tested on: HT-29; test: Cytotoxicity against human HT-29 cells at 10 uM by LDH release assay; format: cell-based; details: ht-29, 10 µM
[2] = Selectivity index, ratio of IC50 for horse butyrylcholine esterase to IC50 for electric eel acetylcholine esterase
[3] = target: Acetylcholinesterase (Homo sapiens, UniProt P22303)
Acetylcholinesterase (Homo sapiens, UniProt P22303), sequence (P22303 whole entry): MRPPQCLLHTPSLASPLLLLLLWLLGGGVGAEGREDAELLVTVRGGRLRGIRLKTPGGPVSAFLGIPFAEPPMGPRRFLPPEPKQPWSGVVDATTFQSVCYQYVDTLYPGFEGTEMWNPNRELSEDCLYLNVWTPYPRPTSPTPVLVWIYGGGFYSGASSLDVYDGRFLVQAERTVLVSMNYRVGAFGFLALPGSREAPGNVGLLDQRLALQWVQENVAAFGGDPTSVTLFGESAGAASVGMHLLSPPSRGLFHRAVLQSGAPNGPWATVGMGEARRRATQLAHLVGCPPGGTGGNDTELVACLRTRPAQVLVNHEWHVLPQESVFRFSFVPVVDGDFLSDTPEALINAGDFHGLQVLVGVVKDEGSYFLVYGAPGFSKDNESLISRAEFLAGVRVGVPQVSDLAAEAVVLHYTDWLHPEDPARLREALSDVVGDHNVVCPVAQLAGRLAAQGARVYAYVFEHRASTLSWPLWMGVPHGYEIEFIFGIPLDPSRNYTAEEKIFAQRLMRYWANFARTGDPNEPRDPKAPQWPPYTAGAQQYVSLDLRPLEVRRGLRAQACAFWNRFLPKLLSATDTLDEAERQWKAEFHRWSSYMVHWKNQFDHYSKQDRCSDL
Description: Inhibition of human acetylcholine esterase preincubated for 10 mins followed by the addition of 550 uM of acetylcholine iodide as substrate measured after 20 mins by Ellman's method

[4] = target: Cholinesterase (Equus caballus, UniProt P81908); test: Inhibition of horse butyrylcholine esterase preincubated for 10 mins followed by the addition of […] as substrate measured after 5 mins by Ellman's method
Cholinesterase, sequence (P81908 whole entry): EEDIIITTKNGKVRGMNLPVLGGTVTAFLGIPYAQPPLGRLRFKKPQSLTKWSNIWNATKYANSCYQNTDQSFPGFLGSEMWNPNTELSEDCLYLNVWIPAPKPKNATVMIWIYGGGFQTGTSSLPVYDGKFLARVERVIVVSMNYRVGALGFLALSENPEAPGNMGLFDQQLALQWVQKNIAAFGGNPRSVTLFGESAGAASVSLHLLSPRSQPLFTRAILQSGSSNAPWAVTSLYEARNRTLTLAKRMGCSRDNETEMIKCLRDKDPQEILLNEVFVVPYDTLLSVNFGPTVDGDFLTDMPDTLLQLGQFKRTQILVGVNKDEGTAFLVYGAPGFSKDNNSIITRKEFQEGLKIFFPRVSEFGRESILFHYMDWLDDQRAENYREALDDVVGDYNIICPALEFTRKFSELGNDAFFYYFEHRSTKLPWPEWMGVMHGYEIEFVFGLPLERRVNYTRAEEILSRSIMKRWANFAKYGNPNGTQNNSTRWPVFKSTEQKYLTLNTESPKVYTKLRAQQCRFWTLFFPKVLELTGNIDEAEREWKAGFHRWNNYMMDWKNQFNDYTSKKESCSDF

[5] = target: T1, Acetylcholinesterase (Electrophorus electricus, UniProt O42275); test: Non-competitive inhibition of electric eel acetylcholine esterase using […] as substrate by Ellman's method
T1 sequence (O42275 whole entry): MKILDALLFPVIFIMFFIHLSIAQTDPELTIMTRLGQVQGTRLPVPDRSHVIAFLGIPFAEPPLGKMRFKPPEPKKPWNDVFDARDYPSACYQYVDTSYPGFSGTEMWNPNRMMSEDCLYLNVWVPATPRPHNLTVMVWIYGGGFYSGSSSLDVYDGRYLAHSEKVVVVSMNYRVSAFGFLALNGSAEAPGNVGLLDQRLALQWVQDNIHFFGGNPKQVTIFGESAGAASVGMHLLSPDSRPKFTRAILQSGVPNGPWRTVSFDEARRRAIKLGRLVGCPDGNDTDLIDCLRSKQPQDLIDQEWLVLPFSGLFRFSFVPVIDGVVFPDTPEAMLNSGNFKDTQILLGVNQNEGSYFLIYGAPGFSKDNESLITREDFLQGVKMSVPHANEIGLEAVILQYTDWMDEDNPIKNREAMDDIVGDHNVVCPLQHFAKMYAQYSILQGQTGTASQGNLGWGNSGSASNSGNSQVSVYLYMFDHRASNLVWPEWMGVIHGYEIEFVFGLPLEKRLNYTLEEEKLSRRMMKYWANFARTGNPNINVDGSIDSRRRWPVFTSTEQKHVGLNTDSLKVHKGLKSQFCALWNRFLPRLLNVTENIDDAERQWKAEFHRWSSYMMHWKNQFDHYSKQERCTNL

[6] = tested on: HT-29; test: Cytotoxicity against human HT-29 cells at 10 times IC50 by LDH release assay; format: cell-based
[7] = target: Amyloid-beta precursor protein (Homo sapiens) (UniProt P05067); test: Inhibition of Amyloid beta42 (unknown origin) self aggregation assessed as Abeta fibril formation at 50 uM for 24 hrs by ThT-based fluorometric assay
Amyloid-beta precursor protein (Homo sapiens), sequence (P05067 whole entry): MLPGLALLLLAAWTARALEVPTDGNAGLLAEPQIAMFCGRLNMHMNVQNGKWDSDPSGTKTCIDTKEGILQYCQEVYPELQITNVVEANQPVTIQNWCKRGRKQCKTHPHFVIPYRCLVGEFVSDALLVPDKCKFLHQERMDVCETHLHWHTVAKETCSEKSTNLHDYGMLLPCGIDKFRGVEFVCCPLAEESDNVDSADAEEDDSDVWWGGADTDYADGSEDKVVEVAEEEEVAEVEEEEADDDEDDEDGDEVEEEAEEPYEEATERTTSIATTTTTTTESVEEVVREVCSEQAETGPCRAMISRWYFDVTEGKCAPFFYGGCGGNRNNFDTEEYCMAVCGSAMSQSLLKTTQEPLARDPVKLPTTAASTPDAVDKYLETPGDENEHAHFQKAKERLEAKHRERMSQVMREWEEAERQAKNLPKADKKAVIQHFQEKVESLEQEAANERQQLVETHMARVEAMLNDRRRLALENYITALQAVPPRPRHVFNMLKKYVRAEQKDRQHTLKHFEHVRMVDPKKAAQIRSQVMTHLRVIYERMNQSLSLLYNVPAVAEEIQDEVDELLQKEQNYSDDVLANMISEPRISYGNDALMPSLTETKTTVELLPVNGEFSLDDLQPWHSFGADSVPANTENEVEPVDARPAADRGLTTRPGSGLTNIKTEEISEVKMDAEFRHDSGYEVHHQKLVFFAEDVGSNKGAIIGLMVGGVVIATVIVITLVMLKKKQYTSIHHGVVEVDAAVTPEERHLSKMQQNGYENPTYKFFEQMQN

[8] = target: T1, Acetylcholinesterase; test: Inhibition of electric eel acetylcholine esterase preincubated for 10 mins followed by the addition of […] as substrate measured after 5 mins by Ellman's method
[9] = tested on: HT-29; test: Cytotoxicity against human HT-29 cells assessed as LDH release at 100 uM after 24 hrs; format: cell-based; details: ht-29, 24 h
[10] = Cytotoxicity against human HT-29 cells assessed as decrease in cell viability after 24 hrs by calcein-AM/propidium iodide based fluorescence analysis; details: read-out: INH
[11] = target: T1, Acetylcholinesterase; test: Mixed inhibition of electric eel acetylcholine esterase using […] as substrate by Ellman's method

Structure (SMILES) | Activity [1] | Ratio IC50 [2] | IC50 [3] [µM] | IC50 [4] [µM] | Ki [5] [µM] | Activity [6] | inhibition [7] | IC50 [8] [µM] | Activity [9] | cytotoxicity at 24 h [10] [%] | Ki [11] [µM]
CCN(CCCCCCCCc1cccc(OC)c1)Cc1ccccc1OC | Non-toxic | 0.8 | 5.65 | 5 | 24.4 | Toxic | inactive | 6.6 | Toxic |  | 
COc1cccc(CCCCCCCCNCc2ccccc2OC)c1 | Non-toxic | 0.2 |  | 3.1 | 17 |  |  | 17.2 | Toxic | 46.3 | 
COc1cccc(CCCCCCCCN2CCCC(OC(=O)N(C)C)C2)c1 (racemic) | Non-toxic | 1.7 |  | 23.5 | 22.4 |  |  | 14.3 |  |  | 
COc1cccc(CCCCCCCCN2CCC(OC(=O)N(C)C)C2)c1 (racemic) | Non-toxic | 1.7 |  | 22.8 | 8.6 |  |  | 13.7 |  |  | 
CCN(CCCCCCCCc1cccc(OC)c1)Cc1ccccc1 | Non-toxic | 0.5 |  | 8 | 10.4 |  |  | 16.1 |  |  | 
COc1cccc(CCCCCCCCN2CCCC2)c1 | Non-toxic | 0.8 |  | 16.4 |  |  |  | 19.6 |  |  | 22.4
COc1cccc(CCCCCCCCN2CCCC(OC(C)=O)C2)c1 (racemic) | Non-toxic | 1.2 |  | 19 | 19 |  |  | 16.1 |  |  | 
